Here are results for two compounds from paper PMC9024893, “1,2,4-Trioxolane and 1,2,4,5-Tetraoxane Endoperoxides against Old-World Leishmania Parasites: In Vitro Activity and Mode of Action” (Pharmaceuticals, 2022).

Test [1] concerns L. infantum promastigotes. In words: Flow cytometry detection of phosphatidylserine externalization (Annexin V/PI). Format: cell-based, Leishmania infantum. The note with it: 2 × IC50, 48 h, mean ± SEM. The protocol: The L. infantum strain (MHOM/PT/1988/IMT151) was chosen for the cytometry analysis and promastigotes at a concentration of 1 × 10^7 parasites/mL were tested against the three compounds evaluated in the intracellular amastigotes assay (LC132, LC137 and LC138). Flow cytometry analysis were performed in a CytoFlex flow cytometer (Beckman Coulter), at an excitation wavelength of 488 nm (blue laser). Data acquisition were collected and registered using channels FL1 (flurescein isothiocyanate, FITC) with a BP filter (525 ± 40 nm) for Fluorescein and FL2 (IP) with a BP filter (570 ± 20 nm) for propidium iodide (PI) and 10,000 total events per sample were analysed using CytExpert v2.0.0.153 software. Samples were analysed in triplicates and two to three independent experiments were performed. Values are expressed as a percentage of cells for a given marker, relatively to the number of cells analysed ± standard error of mean (SEM).
To distinguish apoptotic cell death from necrotic cell death, cells were counterstained with PI, a non-permeable stain with affinity for nucleic acids, as it selectively enters necrotic cells. […] After adding 400 μL of 1 × Binding Buffer, samples were analysed in Cytoflex flow cytometer. Annexin V-FITC and PI were measured in FL1 and FL2 channels, respectively. […]

Test [2] has as its system L. donovani BD14 intracellular amastigotes. Description: Intracellular amastigotes assay in J774A.1 macrophages, L. donovani. Format: cell-based. The note with it: Leishmania donovani, J774.A1; 48 h incubation, J774A.1 host cells; read-out: IC50 ± SD, L. donovani intracellular amastigotes. The protocol:
(§1) The intracellular assay using the macrophage J774A.1 cell line was performed with the compounds that presented best SI on the promastigote’s susceptibility assay. J774A.1 cells were adjusted to 2.5 × 10^5 cells/mL in supplemented DMEM medium. 200 μL/well of the cell suspension was placed in 16 well Lab Tek culture glass slides (Nunc), and incubated at 37 °C ± 1 °C, 5% CO2, for 3 h, to enable the cells to adhere to the slides. After a washing step with DMEM to discard non-attached cells, the cells were infected with 2.5 × 10^6 cells/mL promastigotes in a 10:1 parasite-host cell proportion for 24 h. Compounds and control drugs were added in two replicates of six serial concentrations (Table 3). As negative control, macrophages were cultivated in medium and DMSO, as vehicle solution (0.5% v/v). Slides were incubated for 48 h at the same temperature. After a washing step with 1× PBS (Sigma), slides were fixed and stained, and the infection index was calculated according to [34] by counting the number of intracellular amastigotes per 100 macrophages, in treated and untreated cells. Two independent experiments were performed to determine the amastigotes IC50 of each compound, which was calculated by fitting the data as a non-linear regression with variable slope using a dose-response inhibitory model, in the GraphPad Prism V 8.0 program. SI was determined as described above.

Test [3] deals with L. donovani BD14 promastigotes. Description: Promastigotes susceptibility assay (MTT), L. donovani. Format: cell-based. The note with it: Leishmania donovani; 48 h incubation, MTT; read-out: IC50 ± SD, L. donovani promastigotes. The protocol:
Promastigote forms of strains of L. infantum (MHOM/PT/1988/IMT151) and L. donovani (MHOM/BD/2006/BD14) were cultured at 24 °C ± 1 °C in M199 medium (Sigma) supplemented with 20% foetal bovine serum (FBS, Sigma) and 1% penicillin-streptomycin (Sigma). L. infantum strain belongs to IHMT, Portugal cryobank collection and the L. donovani strain was kindly provided by Dr. Katrin Kuhls, Technical University of Applied Sciences Wildau, Germany. Promastigotes used for the experiments had 7 to 12 in vitro passages in culture after isolation from mice, in order to keep virulence, and were used when the stationary phase of growth was reached (day 5 to 6), corresponding to the highest promastigotes density.
For the determination of the antileishmanial activity and IC50, promastigotes of L. infantum and L. donovani were plated in 96-well flat bottom culture plates at a concentration of 5 × 10^6 parasites/mL and incubated with six serial concentrations of each compound (Table 3), in four replicates, including the control drugs, amphotericin B, miltefosine and pentamidine. One untreated control (parasites with M199 medium plus 0.5% DMSO as vehicle solution) and one blank (M199 medium alone) were also plated out in quadruplicate. After 48 h incubation at 24 °C ± 1 °C, the inhibitory activity of the compounds was evaluated using the MTT, as previously described, with an additional 4 h incubation at 36 °C. Results were expressed in terms of percentage of parasite viability relative to nontreated control and IC50 was calculated fitting the data as a non-linear regression with variable slope using a dose-response inhibitory model, in the GraphPad Prism V 8.0 program. Each compound was tested in three independent assays. […]

The test system of test [4] is L. infantum IMT151 intracellular amastigotes. In words: Intracellular amastigotes assay in J774A.1 macrophages, L. infantum. The format is cell-based. To be noted: Leishmania infantum, J774.A1; 48 h incubation, J774A.1 host cells; read-out: IC50 ± SD, L. infantum intracellular amastigotes. The protocol:
as §1

`C[C@@H]1[C@H](O)[C@@H](C)/C=C/C=C/C=C/C=C/C=C/C=C/C=C/[C@H](O[C@@H]2O[C@H](C)[C@@H](O)[C@H](N)[C@@H]2O)C[C@@H]2O[C@](O)(C[C@@H](O)C[C@@H](O)[C@H](O)CC[C@@H](O)C[C@@H](O)CC(=O)O[C@H]1C)C[C@H](O)[C@H]2C(=O)O` [AmB, amphotericin B, reference compound]: the “late apoptosis (Annexin+/PI+) cell population” value in test [1] is reported as 17.5 ± 0.9%. Also, the IC50 in test [2] came to 0.1 µM; in test [3] it was 0.3 µM; in test [4], 0.3 ± 0.1 µM.

Regarding `CCOC(=O)C1CCC2(CC1)OOC1(OO2)C2CC3CC(C2)CC1C3` (centres unmarked) [LC138], the “late apoptosis (Annexin+/PI+) cell population” value in test [1] was determined as 20.5 ± 4.2%. Further, the values for the IC50 in test [2], in test [3] and in test [4] were 426 ± 25.5 µM, 240 ± 34.8 µM and 23.9 ± 2.7 µM, respectively.
